Source: US10633383B2, “Compounds for the treatment, alleviation or prevention of disorders associated with Tau aggregates” (AC Immune SA, priority 2018, dated 2020)
One block for each compound: values may come before it.

How the values were obtained:
[1] = molecular target: T1, Tau K18 fragment (amino acids 244 to 372 of human Tau441) aggregates (Homo sapiens, UniProt P10636); test: Tau K18 disaggregation assay by ThT; assay type: biochemical; conditions: 2 μM K18 aggregates, 30 minutes at RT, ThT fluorescence
T1 construct: encompassing amino acids 244 to 372 of the longest isoform (2N4R) of human Tau441; host or cells: bacteria
Description: Tau K18 Disaggregation Assay by ThT
(§1) Compounds were dissolved in anhydrous dimethyl sulfoxide (DMSO, Sigma-Aldrich) to reach a concentration of 10 mM. K18 aggregates and serial dilutions of compounds were mixed together in PBS (volume 50 μL) to a final concentration of 2 μM of K18 aggregates and from 160 to 0.04 μM of compounds. The mixture was incubated for 30 minutes at room temperature (RT), then 40 μL of this mixture were transferred into a black 384-well plate assay (Perkin-Elmer) and mixed with 10 μL of 100 μM ThT in 250 mM glycine (both from Sigma-Aldrich) in PBS. Fluorescence (relative fluorescence units; RFU) was measured in monoplicate or duplicate on a Tecan reader (excitation: 440 nm; emission: 485 nm). Percentage of K18 disaggregation was then calculated and half maximal effective concentration (EC50) was determined using GraphPad Prism version 5 (GraphPad Software) assuming a one-binding site fitting model.

[2] = molecular target: T2, recombinant full-length (fl)Tau (human Tau 2N4R) aggregates (Homo sapiens, UniProt P10636); test: Full-length Tau (flTau) disaggregation assay by Thioflavin T (ThT); assay type: biochemical; conditions: 2 μM flTau aggregates, 30 minutes at RT, ThT fluorescence
T2 construct: 35 μM of recombinant full-length (fl)Tau in PBS were aggregated; made in house; host or cells: bacteria
Description: Full-Length Tau (flTau) Disaggregation Assay by Thioflavin T (ThT)
as §1, with “The longest isoform of human Tau (2N4R; 441 amino acids) was expressed in bacteria and purified. For the Tau disaggregation assay by ThT, 35 μM of recombinant full-length (fl)Tau in PBS were aggregated for 24 hours at 37° C. in presence of 50 μM of heparin (Sigma-Aldrich) and 10 mM of DTT (Sigma-Aldrich) under shaking at 750 RPM. Compounds were” for “Compounds were”, “10 mM. flTau aggregates and” for “10 mM. K18 aggregates and”, “μM of flTau aggregates and” for “μM of K18 aggregates and”, “Percentage of flTau disaggregation was” for “Percentage of K18 disaggregation was”, “calculated and the half maximal” for “calculated and half maximal”

[3] = system: human neuroblastoma cell line overexpressing the full-length form of human Tau carrying the P301L mutation; test: Reduction of intracellular Tau aggregation (AlphaLISA); assay type: cell-based; conditions: compound at 5 μM, 24 h, aggregated Tau normalized to total Tau, relative to DMSO-treated cells
Description: Reduction of Intracellular Tau Aggregation
A human neuroblastoma cell line overexpressing the full-length form of human Tau carrying the P301L mutation was cultured in complete medium [DMEM-F12 4.5 g/L Glutamax (Invitrogen), 15% FBS (Biochrom), 1% Peni/Strep (Invitrogen) supplemented with 2.5 μg/ml of G418 (Sigma-Aldrich) selection antibiotic]. The day before the experiment 5×10^5 cells/well were plated in a 6 well plate in 3 mL of complete medium. The next day, cells were incubated with DMSO or a compound of the present invention at a 5 μM for additional 24 h at 37° C. After incubation, cells were trypsinized, resuspended in 100 μl of homogenization buffer [25 mM Tris-HCl pH 7.4, 150 mM NaCl, 1 mM EDTA, 1 mM EGTA containing phosphatase inhibitors (30 mM NaF, 0.2 mM Na3VO4, 1 nM Okadaic acid, 1 mM PMSF, 5 mM Na4P2O7) and protease inhibitor cocktail (Complete™, Roche)], and then physically lysed with three rapid cycles of freezing and thawing. Samples were then directly tested in the AlphaLISA assay. Phosphorylated, aggregated, and total Tau were quantified by AlphaLisa using the following antibody pairs: • HT7-Acceptor beads+biotin (BT)-Tau13-Donor beads: Total Tau • HT7-Acceptor beads+biotin (BT)-HT7-Donor beads: Aggregated human Tau
The Tau13 (Abcam) was biotinylated using EZ-Link® NHS-PEO Solid Phase biotinylation kit (Thermo Scientific), while the HT7-biotin was from a commercial source (Thermo Scientific).
For each antibody pairs the concentration of acceptor beads and biotinylated antibodies was optimized. All samples were first tested in a dilution series in PBS in order to identify the linear range and optimal dilution for each sample and assay. For the final protocol, the following reagents were added in a 384-well white OptiPlate (PerkinElmer): • 5 μL of test diluted sample • 20 μL of the mixture biotin-mAb acceptor beads at the following final concentrations: • HT7-BT at 1.25 nM in combination with HT7-Acc beads at 10 μg/ml • Tau13-BT at 5 nM in combination with HT7-Acc beads at 2.5 μg/ml
After incubation of this mixture at room temperature for 1 h, 25 μL of Streptavidin Donor beads (Perkin Elmer) at 25 μg/mL were added in the dark. Plates were analyzed after 30 min incubation using the EnSpire Alpha instrument and EnSpire Workstation version 3.00. Data for aggregated Tau were normalized to total Tau and then expressed as percentage of the DMSO-treated cells.

T2 sequence (P10636 1-441 isoform P10636-8): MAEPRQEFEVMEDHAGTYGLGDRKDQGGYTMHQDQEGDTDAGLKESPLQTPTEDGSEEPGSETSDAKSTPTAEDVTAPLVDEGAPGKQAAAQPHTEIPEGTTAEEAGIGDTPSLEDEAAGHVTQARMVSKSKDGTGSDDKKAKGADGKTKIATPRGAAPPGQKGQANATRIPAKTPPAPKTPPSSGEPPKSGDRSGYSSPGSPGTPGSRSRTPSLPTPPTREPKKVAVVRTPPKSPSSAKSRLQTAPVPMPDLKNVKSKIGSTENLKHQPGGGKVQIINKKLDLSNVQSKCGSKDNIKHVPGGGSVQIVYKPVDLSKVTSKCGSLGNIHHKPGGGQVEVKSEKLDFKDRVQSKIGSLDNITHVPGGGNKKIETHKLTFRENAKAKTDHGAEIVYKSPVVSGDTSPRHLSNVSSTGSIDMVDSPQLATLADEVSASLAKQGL
T1 sequence (P10636 561-689): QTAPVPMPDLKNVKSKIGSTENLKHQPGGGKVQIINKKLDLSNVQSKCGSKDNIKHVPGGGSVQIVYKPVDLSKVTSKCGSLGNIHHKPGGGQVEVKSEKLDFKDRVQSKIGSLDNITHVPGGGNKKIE

- EC50 [1]: < 10 µM
- EC50 [2]: 10 to 25 µM
Compound: CN(C)c1nc2ccc(N3CCc4c(c5cc(F)ccc5n4C)C3)cc2s1 [Example 3]

- EC50 [1]: < 10 µM
- EC50 [2]: 10 to 25 µM
Compound: CN(C)c1nc2ccc(N3CCc4[nH]c5ccc(F)cc5c4C3)cc2o1 [Example 13]

- EC50 [2]: < 10 µM
Compound: CN(C)c1nc2ccc(N3CCc4c(c5cc(F)cnc5n4C)C3)cc2s1 [Example 34]

- EC50 [2]: < 10 µM
Compound: Cn1c2c(c3cc(F)cnc31)CN(c1ccc3oc(N4CCOCC4)nc3c1)CC2 [Example 36]

- EC50 [2]: 10 to 25 µM
Compound: COc1ccc2[nH]c3c(c2c1)CN(c1ccc2nc(N(C)C)oc2c1)CC3 [Example 40]

- EC50 [2]: 10 to 25 µM
Compound: CN(C)c1nc2cc(N3CCc4c(c5ccc(F)cc5n4C)C3)ccc2o1 [Example 42]

- EC50 [1]: < 10 µM
- EC50 [2]: < 10 µM
Compound: Fc1ccc2c3c([nH]c2c1)CCN(c1ccc2oc(N4CCOCC4)nc2c1)C3 [Example 45, 5-(7-fluoro-1,3,4,5-tetrahydropyrido[4,3-b]indol-2-yl)-2-morpholino-1,3-benzoxazole]
- inhibition at 5 µM [3]: > 50%

- EC50 [2]: < 10 µM
Compound: CN(C)c1nc2ccc(N3CCc4[nH]c5cc(F)ccc5c4C3)cc2s1 [Example 54]

- EC50 [2]: < 10 µM
Compound: CN(C)c1nc2ccc(N3CCc4[nH]c5cc(F)ccc5c4C3)cc2o1 [Example 55]
- inhibition at 5 µM [3]: 10 to 25%

- EC50 [2]: < 10 µM
Compound: CN(C)c1nc2cc(N3CCc4[nH]c5cc(F)ccc5c4C3)ccc2o1 [Example 56]

- EC50 [2]: < 10 µM
Compound: Cn1c2c(c3ccc(F)cc31)CN(c1ccc3sc(N4CCOCC4)nc3c1)CC2 [Example 61]

- EC50 [2]: < 10 µM
Compound: Cn1c2c(c3ccc(F)cc31)CN(c1ccc3nc(N4CCOCC4)oc3c1)CC2 [Example 62]

- EC50 [2]: < 10 µM
Compound: Cn1c2c(c3ccc(F)cc31)CN(c1ccc3nc(N4CCOCC4)sc3c1)CC2 [Example 64]
- inhibition at 5 µM [3]: 10 to 25%

- EC50 [2]: < 10 µM
Compound: Cn1c2c(c3ccc(F)cc31)CN(c1ccc3oc(N4CCOCC4)nc3c1)CC2 [Example 65]

- EC50 [2]: < 10 µM
Compound: CN(C)c1nc2ccc(N3CCc4c(c5ccc(F)cc5n4C)C3)cc2s1 [Example 67]

- EC50 [2]: < 10 µM
Compound: CN(C)c1nc2cc(N3CCc4[nH]c5cc(F)ccc5c4C3)ccc2s1 [Example 69]
- inhibition at 5 µM [3]: > 50%

Further lines, the compound ahead of its results:

Compound: Fc1ccc2[nH]c3c(c2c1)CN(c1ccc2nc(N4CCOCC4)sc2c1)CC3 [Example 6]
- EC50 [1]: < 10 µM
- inhibition at 5 µM [3]: 25 to 50%

Compound: Fc1ccc2[nH]c3c(c2c1)CN(c1ccc2sc(N4CCOCC4)nc2c1)CC3 [Example 9]
- EC50 [1]: < 10 µM
- EC50 [2]: < 10 µM

Compound: COc1ccc2[nH]c3c(c2c1)CN(c1ccc2nc(N4CCOCC4)sc2c1)CC3 [Example 19]
- EC50 [2]: < 10 µM
- inhibition at 5 µM [3]: 25 to 50%

Compound: COc1ccc2[nH]c3c(c2c1)CN(c1ccc2oc(N4CCOCC4)nc2c1)CC3 [Example 24]
- EC50 [1]: < 10 µM
- EC50 [2]: 25 to 50 µM

Compound: Cn1c2c(c3cc(F)cnc31)CN(c1ccc3nc(N4CCOCC4)oc3c1)CC2 [Example 39]
- EC50 [2]: 25 to 50 µM

Compound: Fc1ccc2c3c([nH]c2c1)CCN(c1ccc2nc(N4CCOCC4)sc2c1)C3 [Example 43]
- EC50 [2]: < 10 µM

Compound: Fc1ccc2c3c([nH]c2c1)CCN(c1ccc2nc(N4CCOCC4)oc2c1)C3 [Example 44]
- EC50 [2]: 10 to 25 µM

Compound: Fc1ccc2oc3c(c2c1)CN(c1ccc2oc(N4CCOCC4)nc2c1)CC3 [Example 49]
- EC50 [2]: < 10 µM

Compound: Fc1cccc2[nH]c3c(c12)CN(c1ccc2sc(N4CCOCC4)nc2c1)CC3 [Example 52]
- EC50 [2]: < 10 µM
- inhibition at 5 µM [3]: 10 to 25%

Compound: Fc1ccc2c3c([nH]c2c1)CCN(c1ccc2sc(N4CCOCC4)nc2c1)C3 [Example 63]
- EC50 [2]: < 10 µM

Compound: Fc1ccc2c3c([nH]c2c1)CCN(c1ccn2nc(N4CCOCC4)nc2c1)C3 [Example 70]
- EC50 [1]: < 10 µM
- inhibition at 5 µM [3]: 25 to 50%

Compound: Fc1ccc2[nH]c3c(c2c1)CN(c1ccc(N2CCOCC2)nc1)CC3 [Example 74]
- EC50 [2]: 25 to 50 µM

Compound: Cn1c2c(c3cc(F)ccc31)CN(c1ccc(N3CCOCC3)nc1)CC2 [Example 75]
- EC50 [2]: 10 to 25 µM
